Residues, ends and D or L forms follow the SMILES beside them.
Target: T1, human sweet taste receptor (hT1R2+hT1R3) (Homo sapiens, UniProt Q7RTX0+Q8TE23)
T1 sequence (Q8TE23 20-839): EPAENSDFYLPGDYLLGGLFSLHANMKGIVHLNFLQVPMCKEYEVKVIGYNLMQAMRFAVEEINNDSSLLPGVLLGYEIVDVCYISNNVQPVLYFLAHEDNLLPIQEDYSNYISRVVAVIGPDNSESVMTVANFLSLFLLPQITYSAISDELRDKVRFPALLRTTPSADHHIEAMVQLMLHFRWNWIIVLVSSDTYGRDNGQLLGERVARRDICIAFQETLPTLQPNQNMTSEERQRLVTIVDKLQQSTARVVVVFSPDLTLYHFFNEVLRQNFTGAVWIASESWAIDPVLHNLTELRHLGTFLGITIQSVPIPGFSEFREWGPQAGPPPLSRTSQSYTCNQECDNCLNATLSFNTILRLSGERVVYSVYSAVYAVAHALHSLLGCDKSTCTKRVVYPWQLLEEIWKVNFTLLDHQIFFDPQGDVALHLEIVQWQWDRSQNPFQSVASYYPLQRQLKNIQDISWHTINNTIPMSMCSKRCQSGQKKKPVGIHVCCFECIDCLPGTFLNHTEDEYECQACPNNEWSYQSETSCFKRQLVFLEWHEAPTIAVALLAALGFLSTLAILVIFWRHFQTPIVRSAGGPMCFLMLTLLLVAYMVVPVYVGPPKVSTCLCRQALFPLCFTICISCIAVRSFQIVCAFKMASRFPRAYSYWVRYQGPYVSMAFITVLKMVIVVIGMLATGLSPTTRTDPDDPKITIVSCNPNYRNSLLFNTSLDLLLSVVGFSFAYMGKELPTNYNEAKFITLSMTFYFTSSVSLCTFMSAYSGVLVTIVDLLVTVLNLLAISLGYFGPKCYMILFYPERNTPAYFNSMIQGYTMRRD
T1 sequence (Q7RTX0 21-852): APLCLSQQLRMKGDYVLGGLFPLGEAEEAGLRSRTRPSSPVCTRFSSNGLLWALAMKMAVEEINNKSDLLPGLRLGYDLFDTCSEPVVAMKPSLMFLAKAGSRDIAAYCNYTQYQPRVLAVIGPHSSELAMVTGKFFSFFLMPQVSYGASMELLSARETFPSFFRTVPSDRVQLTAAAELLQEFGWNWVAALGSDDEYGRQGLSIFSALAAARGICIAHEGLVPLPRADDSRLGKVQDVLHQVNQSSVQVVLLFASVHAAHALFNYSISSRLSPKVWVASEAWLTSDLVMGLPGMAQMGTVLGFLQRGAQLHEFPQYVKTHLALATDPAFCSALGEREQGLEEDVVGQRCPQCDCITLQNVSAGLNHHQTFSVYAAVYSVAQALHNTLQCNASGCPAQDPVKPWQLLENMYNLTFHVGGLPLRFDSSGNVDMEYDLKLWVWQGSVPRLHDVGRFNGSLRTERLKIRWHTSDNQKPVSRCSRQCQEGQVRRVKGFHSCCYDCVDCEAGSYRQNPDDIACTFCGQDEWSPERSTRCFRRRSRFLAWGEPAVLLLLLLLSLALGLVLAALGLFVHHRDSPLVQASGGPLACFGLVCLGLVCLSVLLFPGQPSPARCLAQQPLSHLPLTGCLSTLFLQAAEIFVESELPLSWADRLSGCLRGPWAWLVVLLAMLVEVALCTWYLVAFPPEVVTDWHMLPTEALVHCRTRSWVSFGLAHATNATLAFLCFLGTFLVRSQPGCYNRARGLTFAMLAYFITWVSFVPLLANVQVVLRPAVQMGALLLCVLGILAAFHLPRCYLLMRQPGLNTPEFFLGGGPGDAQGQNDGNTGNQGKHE
Experiment: Automated fluorescent calcium imaging (Fluo-4 AM, FlexStation 3) of cultured cell strain (A)
Format: cell-based
Design: The sweet taste receptor subunits T1R2 and T1R3 include an entire part of each subunit
Details: Average ± S.E., n = 2
Description: Automated fluorescent imaging using FlexStation 3 (Molecular Devices) can be performed, for example, according to the following procedure.
First, cells are suspended in a low glucose ([…]) DMEM medium from which hygromycin B has been removed, and each 70 to 80 thousands of cells are seeded on each well of a 96-well plate (Corning, CellBIND Surface).
Then, after cultured at 37° C. for 24 hours, a medium is removed and replaced with a suitable amount of a HEPES (2-[4-(2-hydroxyethyl)-1-piperazinyl]ethanesulfonic acid) buffer, and a HEPES buffer containing a fluorescent calcium indicator (Fluo-4 AM attached to Molecular Devices, FLIPR Ca 4 Assay Kit) is further added. In order to facilitate transfer into cells, a fat-soluble acetoxymethyl group has been introduced into the fluorescent indicator Fluo-4 (excitation wavelength: 495 nm, fluorescent wavelength: 518 nm), and when it is added to a medium, it is easily taken into cells, and is hydrolyzed with an esterase in cells. Hydrolyzed Fluo-4 becomes difficult to be permeated through a cell membrane, and is diffused into cells to form a complex with calcium, emitting intense fluorescence. In a 96-well plate for fluorescent observation, there are a plastic bottom and a film bottom. Since a plate of the plastic bottom is satisfactory in adherability and growth of cells, it is used at a simultaneous assay using a multiplate reader for observing an entire well. However, since a plate of this plastic bottom is bad in transmission property of a UV wavelength, and inhibits transmission of excited light of Fura-2, Fluo-4 is used.
Then, after incubated at 27 to 37° C. for 30 to 60 minutes, by adding thereto a sweet taste substance at a particular concentration or a solution of a sweet taste substance and a substance to be tested, taste stimulation is performed at 27 to 37° C.
A physiological response of the cultured cell strain (A) to sucrose stimulation was analyzed by automated fluorescent imaging.
The cultured cell strain (A) prepared in Example 4 was trypsinized, and suspended in the DMEM medium, a cell density was measured, and each about 80 thousand cells were seeded on each well of a 96-well plate (Corning, CellBIND Surface).
After cultured at 37° C. for 24 hours, the medium was removed and replaced with 50 μl of a HEPES buffer, and 50 μl of a HEPES buffer containing a fluorescent calcium indicator (Fluo-4 AM attached to Molecular Devices, FLIPR Ca 4 Assay Kit) was further added. Then, this was incubated at 27° C. for 45 minutes to prepare cells to be subjected to automated fluorescent imaging.
Then, to the cells was added a HEPES buffer containing sucrose, so that a final concentration of sucrose became a concentration described in Table 1, and sucrose stimulation was performed at 27° C.
The vertical axis of FIG. 15 is a maximum of change (AF) in a fluorescent intensity between immediately after stimulation and 100 seconds after stimulation, that is, a response intensity of cells, and the horizontal axis indicates a sucrose concentration (mM) expressed by logarithm.
A physiological response of the cultured cell strain (A) to D-phenylalanine stimulation was analyzed by automated fluorescent imaging.

Change amount of fluorescent intensity (ΔF) (aspartame 0.04 mM): 3.0 ± 0.1
Change amount of fluorescent intensity (ΔF) (aspartame 0.16 mM): 4.4 ± 1.1
Change amount of fluorescent intensity (ΔF) (aspartame 0.31 mM): 5.2 ± 0.4
Change amount of fluorescent intensity (ΔF) (aspartame 0.63 mM): 12.3 ± 1.7
Change amount of fluorescent intensity (ΔF) (aspartame 1.25 mM): 27.9 ± 1.9
Change amount of fluorescent intensity (ΔF) (aspartame 2.50 mM): 31.2 ± 0.7
SMILES: COC(=O)[C@H](Cc1ccccc1)NC(=O)[C@@H](N)CC(=O)O [aspartame] (H-Asp-Phe-OMe)
